# Patent publication US10336775B2 (Asceneuron SA, priority 2014, dated 2019)
# Read-outs that look alike come from different tables or passages of the source.
# Biological target: His-Tagged hOGA (human O-GlcNAcase) (Homo sapiens (Human), UniProt O60502)
# Test: Human O-GlcNAcase enzyme inhibition assay (Example B01)
# Type: biochemical
# Settings: for IC50: read-out: OGA IC50; for OGA inhibitor activity (in words): measured according to Example B01
# [1] = OGA enzyme inhibition assay, activity range classes defined in μM
# His-Tagged hOGA (human O-GlcNAcase), sequence (O60502 whole entry): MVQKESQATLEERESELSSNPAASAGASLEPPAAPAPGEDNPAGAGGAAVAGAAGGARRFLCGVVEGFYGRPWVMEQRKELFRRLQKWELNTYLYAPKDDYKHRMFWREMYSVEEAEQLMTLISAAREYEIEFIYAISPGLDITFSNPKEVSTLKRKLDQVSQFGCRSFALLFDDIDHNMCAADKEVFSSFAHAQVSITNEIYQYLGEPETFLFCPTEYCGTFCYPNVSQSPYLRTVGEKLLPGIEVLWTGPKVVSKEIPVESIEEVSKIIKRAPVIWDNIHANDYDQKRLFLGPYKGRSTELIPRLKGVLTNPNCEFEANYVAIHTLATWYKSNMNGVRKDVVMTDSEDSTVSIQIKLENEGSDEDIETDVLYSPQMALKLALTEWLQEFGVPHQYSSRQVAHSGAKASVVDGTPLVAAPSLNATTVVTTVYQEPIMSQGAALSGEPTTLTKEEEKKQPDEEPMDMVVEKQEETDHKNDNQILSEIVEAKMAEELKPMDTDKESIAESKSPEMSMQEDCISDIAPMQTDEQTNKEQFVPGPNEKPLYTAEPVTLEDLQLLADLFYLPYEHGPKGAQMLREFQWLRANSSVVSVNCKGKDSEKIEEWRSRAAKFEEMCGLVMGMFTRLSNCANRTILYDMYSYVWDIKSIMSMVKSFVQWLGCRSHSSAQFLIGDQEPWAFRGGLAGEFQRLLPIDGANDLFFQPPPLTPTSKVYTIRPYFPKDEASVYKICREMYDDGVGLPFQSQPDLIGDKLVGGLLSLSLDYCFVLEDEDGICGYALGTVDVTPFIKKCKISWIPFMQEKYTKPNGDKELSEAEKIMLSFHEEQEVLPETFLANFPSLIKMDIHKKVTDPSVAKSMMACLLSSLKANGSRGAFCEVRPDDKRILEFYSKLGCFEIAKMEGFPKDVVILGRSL
molecule,measurement,setting,value
"COc1cnc(N2CCN([C@@H](C)c3ccc4c(c3)OCO4)CC2)nc1 [Example 195, (S)-2-(4-(1-(benzo[d][1,3]dioxol-5-yl)ethyl)piperazin-1-yl)-5-methoxypyrimidine]",IC50,[1],< 0.05 µM
"c1cnc(N2CCN(Cc3ccc4c(c3)OCO4)CC2)nc1 [U.S. Pat. No. 3,299,067 (Example 1), reference compound]",IC50,,0.998 µM
"CC(c1ccc(Cl)cc1)N1CCN(c2ccc3ccccc3n2)CC1 (centres unmarked) [compound 5 of WO 99/21850, reference compound]",OGA inhibitor activity (in words),,not active as OGA inhibitors
"Cc1cc2ccc(C(C)N3CCN(c4ncccc4C(F)(F)F)CC3)cc2[nH]c1=O (centres unmarked) [compound of example 56 of WO 99/21850, reference compound]",OGA inhibitor activity (in words),,not useful as OGA inhibitors
"COc1ccc(C(C)N2CCN(c3ccc(Br)c(OC)n3)CC2)cc1OC (centres unmarked) [compound of example 72 of WO 2005/110982, reference compound]",OGA inhibitor activity (in words),,not active as OGA inhibitors
"(2-(4-(1-(benzo[d][1,3]dioxol-5-yl)ethyl)piperazin-1-yl)thiazol-4-yl)methanamine [Example 84]",IC50,[1],0.05 to 0.2 µM
"N-(2-(4-(1-(3,4-Dichlorophenyl)ethyl)piperazin-1-yl)thiazol-5-yl)acetamide [Example 87]",IC50,[1],1 to 10 µM
"N-((2-(4-(1-(benzo[d][1,3]dioxol-5-yl)ethyl)piperazin-1-yl)thiazol-4-yl)methyl)acetamide [Example 85]",IC50,[1],< 0.05 µM
